Measurements reported in patent EP2340832A1, “Morphinan-6-one compounds for the treatment or prevention of neurodegenerative diseases” (Universität Innsbruck, priority 2009, dated 2011).

Target: µ opioid receptor (Rattus norvegicus, UniProt P33535)
Test: [35S]GTPγS functional assay, rat brain membranes, µ receptor
Format: biochemical, Sprague-Dawley rat
Set-up: from tissue; host or cells: Sprague-Dawley rat brain (without cerebella) membranes
Conditions: read-out: Emax (% of basal activity)
Description: Membrane fractions were prepared from Sprague-Dawley rat or guinea pig brains as described above. To determine binding of [^35S]GTPyS, rat or guinea pig brain membranes (10 µg of protein) were incubated for 60 min at 30 °C in Tris-EGTA buffer (50 mM Tris-HCl buffer, 3 mM MgCl2, 1 mM EGTA, […], pH 7.4) containing 30 µM GDP, 0.05 nM [^35S]GTPyS and appropriate concentrations of the respective compounds according to the present invention in a final volume of 1 ml. The reaction was terminated by vacuum filtration through Whatman GF/B glass fibre filters. Filters were washed three times with ice-cold 50 mM Tris-HCI buffer (pH 7.4) and the bound radioactivity was measured by liquid scintillation counting (Beckman Coulter™ LS6500). Basal activity was determined by subtracting the non-specific binding (measured in the presence of 100 µM unlabelled GTPyS) from the total binding (measured in the absence of the compound).
Stimulation produced by the compound is given as percentage of the basal activity (given as 100%). Functional data, EC50 (nM; half maximal effective concentration) and maximal stimulation Emax (% stimulation over basal level; maximal effective concentration), were calculated by using nonlinear regression analysis and sigmoidal curve fitting GraphPad Prism (San Diego, CA, USA) program. […]

µ opioid receptor, sequence (P33535 whole entry): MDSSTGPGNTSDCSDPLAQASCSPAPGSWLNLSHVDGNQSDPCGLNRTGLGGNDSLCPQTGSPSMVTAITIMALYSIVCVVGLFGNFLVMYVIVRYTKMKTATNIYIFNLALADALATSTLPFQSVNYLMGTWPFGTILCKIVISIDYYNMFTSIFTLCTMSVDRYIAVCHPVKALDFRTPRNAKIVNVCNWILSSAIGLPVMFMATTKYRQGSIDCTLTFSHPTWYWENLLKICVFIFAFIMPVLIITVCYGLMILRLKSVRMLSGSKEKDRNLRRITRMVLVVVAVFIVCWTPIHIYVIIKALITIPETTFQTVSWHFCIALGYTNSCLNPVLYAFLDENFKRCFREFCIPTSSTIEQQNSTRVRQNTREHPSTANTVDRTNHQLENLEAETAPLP

## C[C@@H](NC(=O)[C@@H](N)Cc1ccc(O)cc1)C(=O)NCC(=O)N(C)[C@@H](Cc1ccccc1)C(=O)NCCO [DAMGO, [D-Ala^2, Me-Phe ^4, Gly-ol^5]enkephalin]
  Emax: 179 ± 5%
